Experimental data reported in patent publication US20250312357A1, “PROCESS OF PHYTOCA[…] FORMULATION AND USE IN THE MANAGEMENT OF PAIN” (COUNCIL OF SCIENTIFIC & INDUSTRIAL RESEARCH, priority 2022, published 2025).

Assays:
[1] = tested on: thermal nociceptive response; assay: Tail flick assay for thermal nociceptive response; format: in vivo, female BALB/c mice; details: fractions 10 mg/kg p.o., diclofenac sodium 50 mg/kg i.p.
Procedure: b. In-vivo efficacy study in pain model using the tail flick Assay for assessment of thermal nociceptive response in female BALB/c mice
Tail Flick Test: Prior to starting the test, the intensity of the beam was adjusted to produce a latency of approximately 3-6 sec. The was performed three times for each animal, at 3- to 5-min intervals, and the average of the three times recorded as the average reaction time (seconds). The light beam was delivered about 15 mm from the tip of the tail for mice. To minimize the chance of tissue trauma from heat exposure, a cut-off time of 10 sec was established, at which time the animal was removed from the test (Curr. Protoc. Neurosci., 2007, 41, 8.9.1). Mice were treated with diclofenac sodium (50 mg/kg. i.p.), a standard analgesic drug, CS-016-C2-F2-F2-F2 (10 mg/kg. p.o), CS-016-C2-F2-F3-F2 (10 mg/kg, p.o). and CS-016-B2 (10 mg/kg, p.o) each group contained three animals (n=3).
Tail Flick Assay in Female BALB/c Mice. […] The data were analysed using graph-pad prism software (8.0.2). […]

[2] = tested on: paclitaxel (PT) induced neuropathic pain; assay: Randall Selitto test for mechanical hyperalgesia in paclitaxel induced neuropathic (cancer) pain model; format: in vivo, male BALB/c mice; details: paclitaxel 2 mg/kg i.p. (pain induction), all groups; FIGS. 7a and 7b
Procedure: a. In-Vivo Efficacy Study in Cancer Pain Model Using the Randall Selitto Test for Assessment of Mechanical Hyperalgesia in Male BALB/c Mice
Animals: Male BALB/C mice of weight range 25-30 g were used for evaluation of CS-016-B1 in paclitaxel (PT) induced neuropathic pain. Animals were housed under a 12-hour light/dark cycle in a temperature (65-75° F.; ^˜18-23° C.) and humidity-controlled (40-60%) environment. They were supplied with free access to the food and water (ad libitum). Prior to initiation of study all the animals were acclimatized for one week under standard laboratory conditions, animals were drug naive with no prior procedures performed. All testing were performed from 1 to 4 p.m. […]
Development of neuropathic pain in mice: Neuropathic pain in BALB/C mice was induced by intraperitoneal (i.p.) administration of Paclitaxel (PT) at 2 mg/kg for consecutive 5 days (Sci. Rep., 2014, 4, 1). Before paclitaxel injection baseline values of pain threshold for all the animals were recorded. […]
Experimental protocol: The present study was comprised of five experimental groups. […] Pain threshold was assessed using Randall Selitto for assessment of mechanical hyperalgesia at different time points like 0, 5th, 10th, and 15th days post dosing. […]
Randall Selitto Test: The nociceptive withdrawal threshold was assessed by using the Randall-Selitto algesimeter (Analgesy-Meter, Ugo Basile). […]

SMILES | latency time at 4 h relative to baseline ([1]; 4 h after treatment) | time till which the effect on latency time sustained [1] [h] | mechanical threshold compared with the baseline data [2]
O=C(O)Cc1ccccc1Nc1c(Cl)cccc1Cl [diclofenac sodium] | comparable to that of baseline data | 3 | 
CC(=O)O[C@H]1C(=O)[C@@]2(C)[C@H]([C@H](OC(=O)c3ccccc3)[C@]3(O)C[C@H](OC(=O)[C@H](O)[C@@H](NC(=O)c4ccccc4)c4ccccc4)C(C)=C1C3(C)C)[C@]1(OC(C)=O)CO[C@@H]1C[C@@H]2O [paclitaxel] |  |  | significant reduction in mechanical threshold
